Experimental findings from BindingDB's records for doi:10.1016/s0167-0115(98)00049-4 (Uppsala University, 1998) are described below.

Non-standard residues stand in square brackets, D forms with d. Residues, ends and D or L forms follow the SMILES beside them. Ahx = NCCCCCC(=O)O

The experiment has as its target T1, Neuropeptide Y receptor type 2 (Cavia porcellus, UniProt Q9Z2D5).
T1 sequence (Q9Z2D5 whole entry): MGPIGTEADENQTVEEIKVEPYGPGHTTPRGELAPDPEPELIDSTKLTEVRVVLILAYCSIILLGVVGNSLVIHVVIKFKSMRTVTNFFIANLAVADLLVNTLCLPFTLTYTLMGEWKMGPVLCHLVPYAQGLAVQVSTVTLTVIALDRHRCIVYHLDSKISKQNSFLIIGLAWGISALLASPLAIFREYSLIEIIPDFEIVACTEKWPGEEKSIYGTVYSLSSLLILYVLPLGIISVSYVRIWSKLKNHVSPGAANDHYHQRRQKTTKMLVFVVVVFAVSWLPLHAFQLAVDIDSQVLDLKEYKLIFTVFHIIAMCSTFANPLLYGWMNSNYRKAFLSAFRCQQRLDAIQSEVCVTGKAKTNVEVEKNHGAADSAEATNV
The term Ki denotes a measure of affinity in units of concentration, obtained from inhibition or displacement. For the compound `CC[C@H](C)[C@H](NC(=O)[C@H](Cc1ccc(O)cc1)NC(=O)[C@H](Cc1cnc[nH]1)NC(=O)[C@H](CCCN=C(N)N)NC(=O)[C@H](CC(C)C)NC(=O)[C@H](C)NC(=O)[C@@H](N)CO)C(=O)N[C@@H](CC(N)=O)C(=O)N[C@@H](CC(C)C)C(=O)N[C@H](C(=O)N[C@H](C(=O)N[C@@H](CCCN=C(N)N)C(=O)N[C@@H](CCC(N)=O)C(=O)N[C@@H](CCCN=C(N)N)C(=O)N[C@@H](Cc1ccc(O)cc1)C(N)=O)[C@@H](C)O)[C@@H](C)CC` [NPY22-36, rat, human], the Ki is 0.000136 µM.
The same measure for `CC[C@H](C)[C@H](NC(=O)[C@H](Cc1ccc(O)cc1)NC(=O)[C@H](Cc1c[nH]cn1)NC(=O)[C@H](CCCNC(=N)N)NC(=O)[C@H](CC(C)C)NC(=O)[C@H](C)NC(=O)[C@H](CO)NC(=O)[C@H](Cc1ccc(O)cc1)NC(=O)CCCCCNC(=O)[C@H](CC(N)=O)NC(=O)[C@H](CC(=O)O)NC(=O)[C@@H]1CCCN1C(=O)[C@H](CCCCN)NC(=O)[C@H](CO)NC(=O)[C@@H]1CCCN1C(=O)[C@@H](N)Cc1ccc(O)cc1)C(=O)N[C@@H](CC(N)=O)C(=O)N[C@@H](CC(C)C)C(=O)N[C@H](C(=O)N[C@H](C(=O)N[C@@H](CCCNC(=N)N)C(=O)N[C@@H](CCC(N)=O)C(=O)N[C@@H](CCCNC(=N)N)C(=O)N[C@@H](Cc1ccc(O)cc1)C(N)=O)[C@@H](C)O)[C@@H](C)CC` [NPY8-20, Ahx] (H-YPSKPDN[Ahx]YSALRHYINLITRQRY-NH2): 0.000117 µM.
`CC[C@H](C)[C@H](NC(=O)[C@H](Cc1ccc(O)cc1)NC(=O)[C@H](Cc1cnc[nH]1)NC(=O)[C@H](CCCNC(=N)N)NC(=O)[C@H](CC(C)C)NC(=O)[C@H](C)NC(=O)[C@H](CO)NC(=O)[C@H](Cc1ccc(O)cc1)NC(=O)CCCCCNC(=O)[C@H](CC(N)=O)NC(=O)[C@H](CC(=O)O)NC(=O)[C@@H]1CCCN1C(=O)[C@H](CCCCN)NC(=O)[C@H](CO)NC(=O)[C@@H]1CCCN1C(=O)[C@@H](N)Cc1ccc(O)cc1)C(=O)N[C@@H](CC(N)=O)C(=O)N[C@@H](CC(C)C)C(=O)N[C@H](C(=O)N[C@H](C(=O)N[C@@H](CCCNC(=N)N)C(=O)N1CCC[C@H]1C(=O)N[C@@H](CCCNC(=N)N)C(=O)N[C@@H](Cc1ccc(O)cc1)C(N)=O)[C@@H](C)O)[C@@H](C)CC` [NPY8-20, Pro34, Ahx] (H-YPSKPDN[Ahx]YSALRHYINLITRPRY-NH2) came in with a Ki of 0.0853 µM.
Under `CC[C@H](C)[C@H](NC(=O)[C@H](Cc1ccc(O)cc1)NC(=O)[C@H](Cc1cnc[nH]1)NC(=O)[C@H](CCCNC(=N)N)NC(=O)CCCCCNC(=O)[C@H](CCCCN)NC(=O)[C@H](CO)NC(=O)[C@@H]1CCCN1C(=O)[C@@H](N)Cc1ccc(O)cc1)C(=O)N[C@@H](CC(N)=O)C(=O)N[C@@H](CC(C)C)C(=O)N[C@H](C(=O)N[C@H](C(=O)N[C@@H](CCCNC(=N)N)C(=O)N[C@@H](CCC(N)=O)C(=O)N[C@@H](CCCNC(=N)N)C(=O)N[C@@H](Cc1ccc(O)cc1)C(N)=O)[C@@H](C)O)[C@@H](C)CC` [NPY5-24, Ahx] (H-YPSK[Ahx]RHYINLITRQRY-NH2) stands 0.000181 µM.
Under “H-INPIYRLRY-NH2 [NPY 28-36, [P30, Y32, L34]]” stands 0.295 µM.
Under “H-APLEPEYPGDNATPEQMAQYAAELRRYINMLTRPRY-NH2 [CAS_59763-91-6]” stands 1 µM.
